The record followed here is BindingDB's records for doi:10.7270/Q25H7DRT (Nmmlsc, 2010).

The assay addresses T1, Citrate synthase, peroxisomal [1-24] (Saccharomyces cerevisiae, UniProt P08679).
T1 construct: 1-24
Kind of assay: yeast TOR pathway CIT2-GFP reporter potency – flow cytometry, MLPCN hits, dose response (AID 2744). For orientation: A flow cytometer gives signals particle by particle.

T1 sequence (P08679 1-24): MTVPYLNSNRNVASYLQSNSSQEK

On to `ClC(Cl)(c1nnnn1-c1ccccc1)c1nnnn1-c1ccccc1` [SMR000173835], for which the EC50 was more than 33 µM.
In the case of `O=C(Nc1ccccc1)ON=C1CCCC1` [cyclopentanone O-(anilinocarbonyl)oxime] it was more than 33 µM.

A word on the EC50: it is the concentration needed to bring the measured effect to its halfway point.
